# Reference: patent US20250154154A1 (Relay Binney Street, 2nd Floor, priority 2020, published 2025)
# Biological target: SRC (Homo sapiens, UniProt P12931)
# Assay: SRC Biochemical Assay Protocol (microfluidic mobility shift assay, FLPeptide4 substrate)
# Protocol: SRC Biochemical Assay Protocol
# Src biochemical kinase activity was measured using a surrogate fluorescent peptide substrate [FLPeptide4; 5-FAM-EGIYGVLFKKK-CONH2 (PerkinElmer Cat. No. 760348)] with a microfluidic mobility shift assay. Reactions were performed in 384-well flat bottom polystyrene microplates (Corning Cat. No. 3570) at a final volume of 20 μL in 50 mM HEPES pH 7.4, 1 mM EGTA, 10 mM MgCl2, 0.01% Brij-35, 2 mM DTT, 0.05% BSA, 1% DMSO. Inhibition experiments were performed with compounds of the invention varying from 0.0017-100 μM with 0.26 nM SRC, 1.5 μM FLPeptide4, and 50 μM ATP. Specifically, 15 μl 1.3× mixtures of SRC+FLPeptide4+compounds were preincubated for 30 minutes at room temperature followed by addition of 5 μL 4×ATP. Reactions were carried out for 90 minutes then quenched with 40 μl 500 mM EDTA. Phosphorylated peptide product was measured with a mobility shift assay using a LabChip® EZ Reader system (PerkinElmer Cat. No. 122919). Inhibition ratios were calculated relative to neutral controls and IC50 values were obtained from dose response data fitted to a 4-parameter logistic model.
row,Compound,IC50
1,"1-(4-(3-((4-amino- 7-isopropyl-5-(3- methoxy-4-(6- methylpyridin-2- yloxy)phenyl)-7H- pyrrolo[2,3- d]pyrimidin-6- yl)ethynyl)azetidin- 1-yl)piperidin-1- yl)prop-2-en-1-one [II-306]",10 to 1000 nM
2,"C=CC(=O)N1CCC(C#Cc2c(-c3ccc(Oc4ccccc4)cc3)c3c(N)ncnc3n2[C@H](C)CO)CC1 (single isomer, unassigned) [Example I-24]",10 to 1000 nM
3,"C=CC(=O)N1CCC(C#Cc2c(-c3ccc(Oc4ccccc4)cc3)c3c(N)ncnc3n2[C@@H](C)CO)CC1 (single isomer, unassigned) [Example I-26]",10 to 1000 nM
4,CC(C)n1c(C#CC2CCN(C#N)CC2)c(-c2ccc(Oc3ccccc3)cc2)c2c(N)ncnc21 [Example I-2],10 to 1000 nM
5,C=CC(=O)N1CC(C#Cc2c(-c3ccc(Oc4ccccc4)cc3)c3c(N)ncnc3n2C(C)C)C1 [Example I-3],≤ 10 nM
6,C=CC(=O)N1CCC(C#Cc2c(-c3ccc(Nc4ccccn4)cc3)c3c(N)ncnc3n2C(C)C)CC1 [Example I-9],10 to 1000 nM
7,C=CC(=O)N1CCC(C#Cc2c(-c3ccc(Oc4ccccc4)nc3)c3c(N)ncnc3n2C(C)C)CC1 [Example I-10],10 to 1000 nM
8,C=CC(=O)N1CCC(C#Cc2c(-c3ccc(Oc4cccnc4)cc3)c3c(N)ncnc3n2C(C)C)CC1 [Example I-11],10 to 1000 nM
9,C=CC(=O)N1CCC(C#Cc2c(-c3ccc(Oc4ccccn4)cc3)c3c(N)ncnc3n2C(C)C)CC1 [Example I-12],10 to 1000 nM
10,C=CC(=O)N1CCC(C#Cc2c(-c3cnc(Oc4ccccc4)nc3)c3c(N)ncnc3n2C(C)C)CC1 [Example I-13],1000 to 10000 nM
11,C=CC(=O)N1CCC(C#Cc2c(-c3ccc(Oc4cnccn4)cc3)c3c(N)ncnc3n2C(C)C)CC1 [Example I-14],10 to 1000 nM
12,C=CC(=O)N1CCC(C#Cc2c(-c3ccc(Oc4ncccn4)cc3)c3c(N)ncnc3n2C(C)C)CC1 [Example I-15],10 to 1000 nM
13,C=CC(=O)N1CCC(C#Cc2c(-c3ccc(OCC4CCCC4)cc3)c3c(N)ncnc3n2C(C)C)CC1 [Example I-16],10 to 1000 nM
14,C=CS(=O)(=O)N1CC(C#Cc2c(-c3ccc(Oc4ccccc4)cc3)c3c(N)ncnc3n2C(C)C)C1 [Example I-17],≤ 10 nM
15,CC#CC(=O)N1CCC(C#Cc2c(-c3ccc(Oc4ccccc4)cc3)c3c(N)ncnc3n2C(C)C)CC1 [Example I-18],10 to 1000 nM
16,C=CC(=O)N1CCC(C#Cc2c(-c3ccc(Oc4cccc(C)c4)cc3)c3c(N)ncnc3n2C(C)C)CC1 [Example I-21],10 to 1000 nM
17,C=CC(=O)N1CCC(C#Cc2c(-c3ccc(Nc4cccc(C)n4)cc3)c3c(N)ncnc3n2C(C)C)CC1 [Example I-22],10 to 1000 nM
18,C=CC(=O)N1CCC(C#Cc2c(-c3ccc(Oc4cccc(F)c4)cc3)c3c(N)ncnc3n2C(C)C)CC1 [Example I-28],10 to 1000 nM
19,C=CC(=O)N1CCC(C#Cc2c(-c3ccc(C(C#N)c4ccccc4)cc3)c3c(N)ncnc3n2C(C)C)CC1 (stereo not shown) [Example I-30],10 to 1000 nM
20,C=CC(=O)N1CCC(C#Cc2c(-c3ccc(Oc4ccccc4C#N)cc3)c3c(N)ncnc3n2C(C)C)CC1 [Example I-31],10 to 1000 nM

row,Compound,IC50
1,C=CC(=O)N1CCC(C#Cc2c(-c3ccc(Oc4ccccc4)cc3)c3c(N)ncnc3n2C(C)C(=O)O)CC1 (stereo not shown) [Example I-34],1000 to 10000 nM
2,C=CC(=O)N1CCC(C#Cc2c(-c3ccc(Oc4cccc(Cl)c4)cc3)c3c(N)ncnc3n2C(C)C)CC1 [Example I-36],10 to 1000 nM
3,C=CS(=O)(=O)N1CCC(C#Cc2c(-c3ccc(Oc4ccccc4)cc3)c3c(N)ncnc3n2C(C)C)CC1 [Example I-37],≤ 10 nM
4,CC(C)n1c(C#CC2CCC(NC(=O)CCl)CC2)c(-c2ccc(Oc3ccccc3)cc2)c2c(N)ncnc21 (stereo not shown) [Example I-38],10 to 1000 nM
5,CC(Cl)C(=O)N1CCC(C#Cc2c(-c3ccc(Oc4ccccc4)cc3)c3c(N)ncnc3n2C(C)C)CC1 (stereo not shown) [Example I-39],10 to 1000 nM
6,C=CS(=O)(=O)NC1CCC(C#Cc2c(-c3ccc(Oc4ccccc4)cc3)c3c(N)ncnc3n2C(C)C)CC1 (stereo not shown) [Example I-43],≤ 10 nM
7,C=CC(=O)N1CC(N2CCC(C#Cc3c(-c4ccc(Nc5ccccn5)cc4)c4c(N)ncnc4n3C(C)C)CC2)C1 [Example I-46],10 to 1000 nM
8,C=CC(=O)N1CC(N2CCC(C#Cc3c(-c4ccc(Oc5ccccn5)cc4)c4c(N)ncnc4n3C(C)C)CC2)C1 [Example I-47],10 to 1000 nM
9,C=CS(=O)(=O)N1CC(N2CCC(C#Cc3c(-c4ccc(Oc5ccccc5)cc4)c4c(N)ncnc4n3C(C)C)CC2)C1 [Example I-53],≤ 10 nM
10,C=CC(=O)N1C[C@@H]2[C@@H](C#Cc3c(-c4ccc(Oc5cccc(C)n5)c(OC)c4)c4c(N)nccc4n3CCOC)[C@@H]2C1 [II-78],1000 to 10000 nM
11,C=CC(=O)N1CCC(N2CC(C#Cc3c(-c4ccc(Oc5cccc(C)n5)c(OC)c4)c4c(N)ncnc4n3CC)C2)CC1 [II-121],10 to 1000 nM
12,C=CC(=O)N1CCC(N2CC(C#Cc3c(-c4ccc(Oc5cccc(C)n5)c(OC)c4)c4c(N)ncnc4n3C3CCOC3)C2)CC1 (stereo not shown) [II-125],10 to 1000 nM
13,"CC(C)n1c(C#CC2CCN(C)CC2)c(-c2ccc(Oc3ccccc3)cc2)c2c(N)ncnc21 [II-141, 7-isopropyl-6-((1-methylpiperidin-4-yl)ethynyl)-5-(4-phenoxyphenyl)-7H-pyrrolo[2,3-d]pyrimidin-4-amine]",≤ 10 nM
14,"COC(=O)C(C)N1CCC(C#Cc2c(-c3ccc(Oc4ccccc4)cc3)c3c(N)ncnc3n2C(C)C)CC1 (stereo not shown) [II-148, methyl 2-(4-((4-amino-7-isopropyl-5-(4-phenoxyphenyl)-7H-pyrrolo[2,3-d]pyrimidin-6-yl)ethynyl)piperidin-1-yl)propanoate]",10 to 1000 nM
15,"CC(C(=O)O)N1CCC(C#Cc2c(-c3ccc(Oc4ccccc4)cc3)c3c(N)ncnc3n2C(C)C)CC1 (stereo not shown) [II-149, 2-(4-((4-amino-7-isopropyl-5-(4-phenoxyphenyl)-7H-pyrrolo[2,3-d]pyrimidin-6-yl)ethynyl)piperidin-1-yl)propanoic acid]",≤ 10 nM
16,"CC(C(N)=O)N1CCC(C#Cc2c(-c3ccc(Oc4ccccc4)cc3)c3c(N)ncnc3n2C(C)C)CC1 (stereo not shown) [II-150, 2-(4-((4-amino-7-isopropyl-5-(4-phenoxyphenyl)-7H-pyrrolo[2,3-d]pyrimidin-6-yl)ethynyl)piperidin-1-yl)propanamide]",10 to 1000 nM
17,"CC(C)n1c(C#CC2CCC(N)CC2)c(-c2ccc(Oc3ccccc3)cc2)c2c(N)ncnc21 (stereo not shown) [II-151, 6-((4-aminocyclohexyl)ethynyl)-7-isopropyl-5-(4-phenoxyphenyl)-7H-pyrrolo[2,3-d]pyrimidin-4-amine]",≤ 10 nM
18,"CC(C)n1c(C#CC2CNC2)c(-c2ccc(Oc3ccccc3)cc2)c2c(N)ncnc21 [II-152, 6-(azetidin-3-ylethynyl)-7-isopropyl-5-(4-phenoxyphenyl)-7H-pyrrolo[2,3-d]pyrimidin-4-amine]",≤ 10 nM
19,"CC(C)n1c(C#CC2CCN(C3CNC3)CC2)c(-c2ccc(Oc3ccccc3)cc2)c2c(N)ncnc21 [II-153, 6-((1-(azetidin-3-yl)piperidin-4-yl)ethynyl)-7-isopropyl-5-(4-phenoxyphenyl)-7H-pyrrolo[2,3-d]pyrimidin-4-amine]",≤ 10 nM
20,"COC(=O)C(C)n1c(C#CC2CCNCC2)c(-c2ccc(Oc3ccccc3)cc2)c2c(N)ncnc21 (stereo not shown) [II-154, methyl 2-(4-amino-5-(4-phenoxyphenyl)-6-(piperidin-4-ylethynyl)-7H-pyrrolo[2,3-d]pyrimidin-7-yl)propanoate]",10 to 1000 nM
